Measurements: ChEMBL document CHEMBL3507680, “University of Dundee, Gates Library screen for HepG2 cell viability”

Assay: Human HepG2 cell viability assay in 384 well format
Assay type: toxicity, cell-based
Parameters: dose 125 nL, time 70.5 hour; cytotoxicity at 70.5 h: concentration not given beside the values
Conditions: HepG2 cells, read-out: Inhibition

In order of falling cytotoxicity at 70.5 h:
1. Cc1cnc(C)c(-c2cc(O)c3c(c2)CN(c2ncccn2)CCO3)n1  48.2%
2. Cc1cc(C)nc(C2CCCN2C(=O)c2cnco2)n1 (stereo unspecified)  33.6%
3. COC(=O)CCNC(=O)c1cccc(C(=O)N(C)c2ccccc2)c1  31.4%
4. CC(C(=O)NCc1ccc(F)cc1)N(C)CCN1CCOCC1 (stereo unspecified)  24.4%
5. Cn1cc(N2C[C@@H]3CN(Cc4ccccn4)C[C@@H]3C2=O)cn1  24.4%
6. Clc1ccc2oc(C3CCN(Cc4cccnc4)CC3)nc2c1  22.9%
7. Cc1nccn1[C@@H]1CC[C@@H](NC(=O)CCCn2cccn2)[C@H]1O  19.3%
8. COC[C@@]12CCO[C@@H]1CCN(Cc1ccc(C)s1)C2  15.9%
9. COc1cc(C(=O)N2CCCC(CNS(C)(=O)=O)C2)ccc1C (stereo unspecified)  15.8%
10. Cc1ccc(C2(C(=O)NCCCn3cccn3)CCOCC2)cc1  14.4%
11. O=C(c1ccc2nncn2c1)N1CCCCC1Cn1cccn1 (stereo unspecified)  8.64%
12. CCCn1[nH]cc/c1=N\C(=O)CN1CCn2c(nnc2C2CC2)C1  8.11%
13. CN(Cc1nncn1-c1cccc(C(F)(F)F)c1)S(C)(=O)=O  7.25%
14. CC(c1ccccn1)N(C)Cc1cc2cc3c(cc2[nH]c1=O)OCO3 (stereo unspecified)  6.6%
15. CCCN1CCC(N2CCN(c3cccc(C)n3)CC2)CC1  5.86%
16. COc1ccc(CN2CCn3c(CO)nnc3C2)cc1CN1CCCC1  2.95%
17. O=C(CCCOc1ccc(F)cc1F)N1CCCC1Cn1cccn1 (stereo unspecified)  1.98%
18. Cc1cc(N2CCC(n3cc(CN4CCSCC4)nn3)CC2)ccn1  1.06%
19. O=c1cccnn1CC1CN(Cc2ccsc2)Cc2nccn2C1 (stereo unspecified)  0.993%
20. CCCN1CCC(c2cc(CCOc3ccc(C(F)(F)F)cc3)[nH]n2)C1 (stereo unspecified)  0.882%
21. COCCOC[C@]1(CNCc2cccc(OC)c2)C[C@@H](O)[C@@H](O)C1  0.877%
22. CC(C)n1nc(Cn2cccc2)c2c1CN(C1CCOCC1)C2  0.409%
23. COc1ccc(CC(=O)NC2(C)CCS(=O)(=O)C2)cc1F (stereo unspecified)  0.396%
24. CC(C)OCCN1CCC(Nc2ncccn2)CC1  0.193%
25. O=C(NC[C@]1(O)CCN(Cc2ccccc2F)C[C@H]1O)c1c[nH]cn1  -0.237%
26. CCn1cc(Cl)c(C(=O)NCCOC)n1  -0.484%
27. CN1CC2(CCN(C(=O)c3cccnc3)CC2)c2cccc(F)c21  -0.505%
28. Cc1csc(N2CCCN(CCC(=O)NC(N)=O)CC2)n1  -1.42%
29. Cc1ccc(C(=O)Nc2cn[nH]c2)cn1  -1.81%
30. CCOc1ccc(CN2CC[C@@](C)(O)[C@@H](Cc3ccccc3)C2)cn1  -1.83%
31. CS(=O)(=O)CC(=O)NCC1OCCc2cn(CC3CC3)nc21 (stereo unspecified)  -1.93%
32. Cc1cnn(CC2CN(CC(=O)N(C)c3nccs3)CCO2)c1 (stereo unspecified)  -2.03%
33. CCNC(=O)NC(=O)CN1CCC(c2cccc(F)c2)C1 (stereo unspecified)  -2.05%
34. O=C(c1cc(Cl)c2c(c1)OCO2)N1CCN(c2ccccn2)CC1  -2.19%
35. Nc1ccc(C(=O)N2C[C@@H]3CC[C@H](C2)N(Cc2ccccc2)C3)cn1  -2.24%
36. O=C(NC1CCCN(CCCc2ccccc2)C1)c1ccncc1 (stereo unspecified)  -2.32%
37. O=c1[nH]c2ccccc2c2c1CCO2  -2.59%
38. Fc1cccc(N2CCOC3(CCCN(c4nncs4)C3)C2)c1 (stereo unspecified)  -2.67%
39. COc1cccc(CC(C)NC(=O)c2ccc(CNC(C)=O)cc2)c1 (stereo unspecified)  -2.82%
40. CN1CCN(CCOc2ccc(NC(=O)c3ccncc3)cc2)CC1  -3.29%
41. Cc1ccc(OCC2CCCN(Cc3ccc(CO)o3)C2)cc1 (stereo unspecified)  -3.39%
42. CCc1ncc2c(n1)CN(c1cc(NCCO)nc(N)n1)C2  -3.48%
43. Fc1ccc(-c2nccnc2C2CCCNC2)cc1 (stereo unspecified)  -3.79%
44. Cn1[nH]c(C2CCC2)c(-c2ccc3c(c2)OCO3)c1=N  -3.82%
45. CN1CCN(Cc2cn3c(n2)CN(C(=O)N2CCOCC2)CC3)CC1  -3.86%
46. O=C(CN1CCC(c2nnc(C(F)(F)F)o2)CC1)Nc1cccnc1  -3.9%
47. NS(=O)(=O)c1cc(C(=O)N2CCCCC2)cs1  -4.34%
48. Cn1cccc1C(=O)N1C[C@H]2CN(Cc3cccs3)C[C@H]2C1  -4.47%
49. CN(C)CC1CN(Cc2ccc(F)cc2)Cc2nccn2C1 (stereo unspecified)  -4.49%
50. Cc1cn2c(n1)CCC(NC(=O)CNS(C)(=O)=O)C2 (stereo unspecified)  -4.61%
51. CCC1(O)CCCN(c2ncnc3c2c(C)nn3C)C1 (stereo unspecified)  -4.68%
52. O=C(c1ccc(COc2ccccc2Cl)o1)N1N=CCC1(O)C(F)(F)F (stereo unspecified)  -4.75%
53. CC(C)C[C@@H]1N[C@H](C(=O)NC2CCOCC2)Cc2c[nH]c3cccc1c23  -4.79%
54. Cn1ccnc1Sc1ccc(S(N)(=O)=O)cn1  -5.03%
55. Cc1ccc(C(=O)N(C)CCOc2ccccc2F)c(=O)[nH]1  -5.2%
56. CC(=O)c1cn(CC(=O)N2CCC3(CC2)OCCO3)c2ccccc12  -5.36%
57. CCn1cnnc1CNC(=O)N1CCC(O)CC1  -5.8%
58. CN(Cc1ccco1)Cc1ccccc1CNC(=O)c1cc[nH]n1  -6.12%
59. Cn1c(CN2CCOCC2)nnc1C1CCCN(C(=O)CCC2CC2)C1 (stereo unspecified)  -6.43%
60. Cc1ccccc1C(C)N(C)Cc1nc2c(cnn2C)c(=O)[nH]1 (stereo unspecified)  -6.49%
61. c1ccc(-c2nc(CN3CCCC(Cn4cncn4)C3)cs2)cc1 (stereo unspecified)  -6.56%
62. O=C(C1CCOCC1)N1CCO[C@H]2[C@@H](OCC3CC3)CC[C@@H]21  -6.56%
63. Cc1cccc(CN2CCCCC2c2n[nH]cc2-c2cc(C)no2)c1 (stereo unspecified)  -6.6%
64. CCc1[nH]c2c(CNC(=O)C3CCS(=O)(=O)CC3)cc(C)cc2c1C  -7%
65. Cc1nc(C)n(CC2CCCN2c2ncnc3sccc23)n1 (stereo unspecified)  -7.8%
66. COCCc1noc(CN2CCOC(CN(C)C)C2)n1 (stereo unspecified)  -8.08%
67. CN1N=C(C(=O)N2CCCC(CCc3c(F)cccc3F)C2)CCC1=O (stereo unspecified)  -8.44%
68. O=C(c1ccc(-n2cncn2)cc1)N1CCN(c2cnccn2)CC1  -9.5%
69. O=C(CS(=O)(=O)C1CCCC1)NC1CCc2nccn2C1 (stereo unspecified)  -9.54%
70. CN(CCOc1ccc(C#N)cc1)CC1CCS(=O)(=O)C1 (stereo unspecified)  -9.8%
71. CO[C@H]1CN(CC2CC2)[C@@H]2CCCO[C@H]12  -9.81%
72. O=C(O)[C@@H]1CN(C(=O)c2cc(C3CC3)n[nH]2)C[C@H]1c1cccc(F)c1  -9.94%
73. Cc1cc(C)c(CNC(=O)N(C)Cc2nnc3n2CCC3)c(=O)[nH]1  -10.3%
74. Cc1n[nH]c(C2CN(C(=O)c3ccnc(C4CC4)n3)CCO2)n1 (stereo unspecified)  -10.4%
75. NC(=O)c1ccc(C(=O)N2CCCCC2C2OCCO2)cc1 (stereo unspecified)  -10.6%
76. CCS(=O)(=O)N1C[C@@H](C(=O)NC(C)C)[C@@]2(Cc3ccccc3C(=O)N2)C1  -11.3%
77. Cc1nn(C2CCCC2)c2c1C(c1ccc3c(c1)OCO3)SCC(=O)N2 (stereo unspecified)  -12.2%
78. O=C(O)c1ccc(CNC(=O)C2CCN(C(=O)C3CCC3)CC2)s1  -12.2%
79. Cc1nc(CCNC(=O)NCc2cccc(N(C)C)n2)cs1  -12.8%
80. COc1ccc(Br)cc1CN(C)C(C)c1nc(C)no1 (stereo unspecified)  -20.1%
81. c1ccn2c(C3CCCN3Cc3nc(C4CC4)no3)nnc2c1 (stereo unspecified)  -21.8%
